Like-named read-outs stand apart in the source and are kept apart here.
Legend:
[1] = target: T1, first (BD1: amino acids K57-E168) bromodomain of BRD4 (Homo sapiens, UniProt O60885); assay: TR-FRET bromodomain binding assay, BRD4 BD1; settings: Ki calculated from IC50, probe Kd and probe concentration, read-out: TR-FRET Binding Ki: BRD4 (BDI_K57-E168)
T1 construct: His-tagged first (BD1: amino acids K57-E168)
How it was run: (§1)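 TR-FRET probe competition, His-tagged bromodomain, Alexa647-labeled BET-inhibitor tracer. Ki from IC50 via probe Kd.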

[2] = target: T2, second (BD2: amino acids E352-E168) bromodomain of BRD4 (Homo sapiens, UniProt O60885); assay: TR-FRET bromodomain binding assay, BRD4 BD2; settings: Ki calculated from IC50, probe Kd and probe concentration, read-out: TR-FRET Binding Ki: BRD4 (BDII_E352-M457)
T2 construct: protocol
How it was run: as §1

[3] = test system: breast cancer cell line MX-1; assay: MX-1 cell line proliferation assay (3-day); format: cell-based; settings: Homo sapiens, MX1, MX-1 cells, Cell Titer Glo, read-out: Cellular proliferation: EC50
How it was run: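 EC50 derived by sigmoidal fitting of Cell Titer Glo signal relative to DMSO controls. Compound, 3 μM down to 0.0001 μM final in 3-fold steps, was added to adhered MX-1 cells (5000/well, RPMI + 10% FBS) for a 3-day incubation at 37° C.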

[4] = test system: LPS induced IL-6 production; assay: LPS (lipopolysaccharide) induced IL-6 production mouse assay; settings: 1 h before LPS 2.5 mg/kg i.p., serum IL-6 2 h after LPS, p<0.05
Procedure: Severe combined immunodeficient female mice (5 per group) received an intraperitoneal challenge of lipopolysaccharide (2.5 mg/kg, L2630 E. coli 0111:B4) one hour after oral administration of compounds. Mice were euthanized 2 hours after lipopolysaccharide injection, blood was removed by cardiac puncture, and then the serum harvested from the blood samples was frozen at −80° C. On the day of the assay the serum samples were brought to room temperature and then diluted 1:20 in phosphate-buffered saline containing 2% bovine serum albumin. Interleukin-6 measurements were performed using a cytokine assay from Meso Scale Discovery (Gaithersburg, Md.) for mouse serum analysis according to the manufacturer's protocol and read on a SECTOR Imager 6000 (Meso Scale Discovery, Gaithersburg, Md.) instrument. Statistical analysis was performed using Prism software (version 5.0) incorporating Dunnett's one way ANOVA. The IL-6 mean and standard deviation of the group of vehicle treated animals were compared with the IL-6 mean and standard deviation of the group treated with drug. A p value <0.05 means that there is less than a 5% probability that the mean values in the two groups are equal.

[5] = TR-FRET assay protocol (A-G, compound concentration range)
[6] = TR-FRET assay protocol (D, E or G) per compound

CCS(=O)(=O)Nc1ccc(Oc2ccc(F)cc2F)c(-c2ccc(=O)n(C)c2)c1 [Example 241, N-[4-(2,4-difluorophenoxy)-3-(1-methyl-6-oxo-1,6-dihydropyridin-3-yl)phenyl]ethanesulfonamide]
Ki [1, 5]: 0.0346 µM
Ki [2, 5]: 0.0271 µM
EC50 ([3]; 72 h incubation): 0.181 µM
Inhibition of LPS induced IL-6 production, % inhibition ([4]; 3 mg/kg oral): 73.9 @ 3 mg/kg %

Cn1cc(-c2cc(NS(C)(=O)=O)ccc2Oc2ccccc2Cl)ccc1=O [Example 235, N-[4-(2-chlorophenoxy)-3-(1-methyl-6-oxo-1,6-dihydropyridin-3-yl)phenyl]methanesulfonamide]
Ki [1, 5]: 0.0476 µM
Ki [2, 5]: 0.017 µM
EC50 ([3]; 72 h incubation): 0.238 µM
Inhibition of LPS induced IL-6 production, % inhibition ([4]; 30 mg/kg oral): 58.7 @ 30 mg/kg %

CCOc1cc(=O)n(C)cc1-c1cc(NS(=O)(=O)CC)ccc1Oc1ccc(OC(F)(F)F)cc1 [Example 387, N-{3-(4-ethoxy-1-methyl-6-oxo-1,6-dihydropyridin-3-yl)-4-[4-(trifluoromethoxy)phenoxy]phenyl}ethanesulfonamide]
Ki [1, 6]: 0.0691 µM
Ki [2, 6]: 0.00787 µM
EC50 ([3]; 72 hours with compound): 0.0618 µM
Inhibition of LPS induced IL-6 production, % inhibition ([4]; 3 mg/kg oral): 54.3 @ 3 mg/kg %

CCOc1cc(=O)n(C)cc1-c1cc(NS(=O)(=O)CC)ccc1Oc1ccc(Cl)cc1 [Example 400, N-[4-(4-chlorophenoxy)-3-(4-ethoxy-1-methyl-6-oxo-1,6-dihydropyridin-3-yl)phenyl]ethanesulfonamide]
Ki [1, 6]: 0.00721 µM
Ki [2, 6]: 0.00181 µM
EC50 ([3]; 72 hours with compound): 0.0181 µM
Inhibition of LPS induced IL-6 production, % inhibition ([4]; 3 mg/kg oral): 66.4 @ 3 mg/kg %

CCOc1cc(=O)n(C)cc1-c1cc(NS(=O)(=O)CC)ccc1Oc1ccc(C#N)cc1 [Example 358, N-[4-(4-cyanophenoxy)-3-(4-ethoxy-1-methyl-6-oxo-1,6-dihydropyridin-3-yl)phenyl]ethanesulfonamide]
Ki [1, 5]: 0.0078 µM
Ki [2, 5]: 0.00761 µM
EC50 ([3]; 72 h incubation): 0.0526 µM
Inhibition of LPS induced IL-6 production, % inhibition ([4]; 3 mg/kg oral): 60.5 @ 3 mg/kg %

CCOc1cc(=O)n(C)cc1-c1cc(S(=O)(=O)C(C)C)ccc1Oc1ccc(F)cc1F [Example 369, 5-[2-(2,4-difluorophenoxy)-5-(propan-2-ylsulfonyl)phenyl]-4-ethoxy-1-methylpyridin-2(1H)-one]
Ki [1, 5]: 0.00529 µM
Ki [2, 5]: 0.00242 µM
EC50 ([3]; 72 h incubation): 0.0281 µM
Inhibition of LPS induced IL-6 production, % inhibition ([4]; 3 mg/kg oral): 38.0 @ 3 mg/kg %

CCOc1cc(=O)n(C)cc1-c1cc(S(=O)(=O)C2CC2)ccc1Oc1ccc(F)cc1F [Example 371, 5-[5-(cyclopropylsulfonyl)-2-(2,4-difluorophenoxy)phenyl]-4-ethoxy-1-methylpyridin-2(1H)-one]
Ki [1, 5]: 0.00873 µM
Ki [2, 5]: 0.00229 µM
EC50 ([3]; 72 h incubation): 0.0409 µM
Inhibition of LPS induced IL-6 production, % inhibition ([4]; 3 mg/kg oral): 57.6 @ 3 mg/kg %

CCNc1cc(=O)n(C)cc1-c1cc(NS(=O)(=O)CC)ccc1Oc1ccc(F)cc1F [Example 363, N-{4-(2,4-difluorophenoxy)-3-[4-(ethylamino)-1-methyl-6-oxo-1,6-dihydropyridin-3-yl]phenyl}ethanesulfonamide]
Ki [1, 5]: 0.00494 µM
Ki [2, 5]: 0.00153 µM
EC50 ([3]; 72 h incubation): 0.0296 µM
Inhibition of LPS induced IL-6 production, % inhibition ([4]; 3 mg/kg oral): 42.7 @ 3 mg/kg %

CCS(=O)(=O)Nc1ccc(Oc2ccc(F)cc2F)c(-c2cn(C)c(=O)cc2-n2cccn2)c1 [Example 346, N-{4-(2,4-difluorophenoxy)-3-[1-methyl-6-oxo-4-(1H-pyrazol-1-yl)-1,6-dihydropyridin-3-yl]phenyl}ethanesulfonamide]
Ki [1, 5]: 0.0415 µM
Ki [2, 5]: 0.013 µM
EC50 ([3]; 72 h incubation): 0.264 µM
Inhibition of LPS induced IL-6 production, % inhibition ([4]; 3 mg/kg oral): 48.6 @ 3 mg/kg %

CCOc1cc(=O)n(C)cc1-c1cc(S(=O)(=O)CC)ccc1OCC1CC1(F)F (stereo not shown) [Example 368, 5-{2-[(2,2-difluorocyclopropyl)methoxy]-5-(ethylsulfonyl)phenyl}-4-ethoxy-1-methylpyridin-2(1H)-one]
Ki [1, 5]: 0.0196 µM
Ki [2, 5]: 0.0286 µM
EC50 ([3]; 72 h incubation): 0.0962 µM
Inhibition of LPS induced IL-6 production, % inhibition ([4]; 3 mg/kg oral): 72.4 @ 3 mg/kg %

CCS(=O)(=O)Nc1ccc(Oc2ccc(F)cc2F)c(-c2cn(C)c(=O)cc2OCC2(C)CC2(F)F)c1 (stereo not shown) [Example 335, N-[3-{4-[(2,2-difluoro-1-methylcyclopropyl)methoxy]-1-methyl-6-oxo-1,6-dihydropyridin-3-yl}-4-(2,4-difluorophenoxy)phenyl]ethanesulfonamide]
Ki [1, 5]: 0.0953 µM
Ki [2, 5]: 0.0151 µM
EC50 ([3]; 72 h incubation): 0.239 µM
Inhibition of LPS induced IL-6 production, % inhibition ([4]; 3 mg/kg oral): 50.9 @ 3 mg/kg %

COc1cc(=O)n(C)nc1-c1cc(NS(C)(=O)=O)ccc1Oc1ccccc1 [Example 22, N-[3-(4-methoxy-1-methyl-6-oxo-1,6-dihydropyridazin-3-yl)-4-phenoxyphenyl]methanesulfonamide]
Ki [1, 5]: 0.258 µM
Ki [2, 5]: 0.0519 µM
EC50 ([3]; 72 h incubation): 0.73 µM
Inhibition of LPS induced IL-6 production, % inhibition ([4]; 50 mg/kg oral): 53.9 @ 50 mg/kg %

Cc1cc(Oc2ccccc2)c(-c2ccc(=O)n(C)c2)cc1NS(C)(=O)=O [Example 257, N-[2-methyl-5-(1-methyl-6-oxo-1,6-dihydropyridin-3-yl)-4-phenoxyphenyl]methanesulfonamide]
Ki [1, 5]: 0.0181 µM
Ki [2, 5]: 0.0316 µM
EC50 ([3]; 72 h incubation): 0.173 µM
Inhibition of LPS induced IL-6 production, % inhibition ([4]; 30 mg/kg oral): 49.7 @ 30 mg/kg %

[2H]C([2H])(C)Oc1cc(=O)n(C)cc1-c1cc(NS(=O)(=O)CC)ccc1Oc1ccc(F)cc1F [Example 333, N-[4-(2,4-difluorophenoxy)-3-{4-[(1,1-^2H2)ethyloxy]-1-methyl-6-oxo-1,6-dihydropyridin-3-yl}phenyl]ethanesulfonamide]
Inhibition of LPS induced IL-6 production, % inhibition ([4]; 3 mg/kg oral): 63.6 @ 3 mg/kg %

CCS(=O)(=O)Nc1ccc(Oc2ccc(F)cc2F)c(-c2cn(C)c(=O)cc2OC2CCC2)c1 [Example 367, N-{3-[4-(cyclobutyloxy)-1-methyl-6-oxo-1,6-dihydropyridin-3-yl]-4-(2,4-difluorophenoxy)phenyl}ethanesulfonamide]
Ki [1, 5]: 0.00211 µM
Ki [2, 5]: 0.000528 µM
EC50 ([3]; 72 h incubation): 0.0189 µM
Inhibition of LPS induced IL-6 production, % inhibition ([4]; 3 mg/kg oral): 80.0 @ 3 mg/kg %

CCCOc1cc(=O)n(C)cc1-c1cc(NS(=O)(=O)CC)ccc1Oc1ccc(F)cc1F [Example 292, N-[4-(2,4-difluorophenoxy)-3-(1-methyl-6-oxo-4-propoxy-1,6-dihydropyridin-3-yl)phenyl]ethanesulfonamide]
Ki [1, 5]: 0.00497 µM
Ki [2, 5]: 0.00173 µM
EC50 ([3]; 72 h incubation): 0.045 µM
Inhibition of LPS induced IL-6 production, % inhibition ([4]; 3 mg/kg oral): 58.0 @ 3 mg/kg %

CCS(=O)(=O)Nc1ccc(Oc2ccc(F)cc2F)c(-c2cn(C)c(=O)cc2C(F)(F)F)c1 [Example 268, N-{4-(2,4-difluorophenoxy)-3-[1-methyl-6-oxo-4-(trifluoromethyl)-1,6-dihydropyridin-3-yl]phenyl}ethanesulfonamide]
Ki [1, 5]: 0.483 µM
Ki [2, 5]: 0.0951 µM
EC50 ([3]; 72 h incubation): 0.579 µM

CCOc1cc(=O)n(C)cc1-c1cc(NS(=O)(=O)CC)ccc1OC1CCC1 [Example 384, N-[4-(cyclobutyloxy)-3-(4-ethoxy-1-methyl-6-oxo-1,6-dihydropyridin-3-yl)phenyl]ethanesulfonamide]
Ki [1, 6]: 0.0653 µM
Ki [2, 6]: 0.146 µM
EC50 ([3]; 72 hours with compound): 0.237 µM

CC(C)C(O)c1ccc(-c2cc(=O)n(C)nc2-c2ccccc2Oc2ccccc2)cc1 (stereo not shown) [Example 73, 5-[4-(1-hydroxy-2-methylpropyl)phenyl]-2-methyl-6-(2-phenoxyphenyl)pyridazin-3(2H)-one]
Ki [1, 5]: 0.462 µM
Ki [2, 5]: 0.307 µM
EC50 ([3]; 72 h incubation): 1.13 µM

CCOc1cc(=O)n(C)cc1-c1cc(NS(C)(=O)=O)ccc1Oc1ccc(F)cc1F [Example 277, N-[4-(2,4-difluorophenoxy)-3-(4-ethoxy-1-methyl-6-oxo-1,6-dihydropyridin-3-yl)phenyl]methanesulfonamide]
Ki [1, 5]: 0.0107 µM
Ki [2, 5]: 0.00529 µM
EC50 ([3]; 72 h incubation): 0.0481 µM

CCS(=O)(=O)Nc1ccc(OC2CCC(F)(F)CC2)c(-c2c[nH]c(=O)c(C)c2)c1 [Example 267, N-{4-[(4,4-difluorocyclohexyl)oxy]-3-(5-methyl-6-oxo-1,6-dihydropyridin-3-yl)phenyl}ethanesulfonamide]
Ki [1, 5]: 0.0478 µM
Ki [2, 5]: 0.101 µM
EC50 ([3]; 72 h incubation): > 3 µM

CCOc1cc(=O)n(C)cc1-c1cc(NC(=O)c2ccc(NC(C)=O)cc2)ccc1Oc1ccc(F)cc1F [Example 300, 4-(acetylamino)-N-[4-(2,4-difluorophenoxy)-3-(4-ethoxy-1-methyl-6-oxo-1,6-dihydropyridin-3-yl)phenyl]benzamide]
Ki [1, 5]: 0.0256 µM
Ki [2, 5]: 0.0246 µM
EC50 ([3]; 72 h incubation): 0.291 µM
